Values of other authors as cited in patent publication US20100086625A1, “METHODS FOR TREATING SKIN LESIONS” (priority 2008, published 2010).

Tested on: cold sores
Details: oral

Row | Compound | shortening of the herpes infection (1500 mg) | shortening of a herpes infection (2 gm twice a day for one day)
1 | CC(=O)OCC(CCn1cnc2cnc(N)nc21)COC(C)=O [famciclovir] | two | –
2 | CC(C)[C@H](N)C(=O)OCCOCn1cnc2c(=O)[nH]c(N)nc21 [valacyclovir] | – | over one
